{"source": "PubChem BioAssay AID602337", "about": "(The Scripps Research Institute Molecular Screening Center, 2012)", "test": "mammalian cell viability loss – absorbance, serum and serum-free conditions, cytotoxicity control for DAGLb inhibitor project, dose response (AID 602337)", "conditions": "absorbance readout", "note": "Active and inactive are the calls of the source. How the calls were made is not given here.", "data": [{"smiles": "O=C(N1CCCCC1c1ccccc1)n1cc(-c2ccc(-c3ccccc3)cc2)nn1", "note": "(stereo not drawn)", "values": [{"measurement": "CC50", "setting": "with serum", "result": "> 50 µM (inactive)"}, {"measurement": "CC50", "setting": "without serum", "result": "> 100 µM (inactive)"}]}, {"smiles": "COc1ccc(-c2ccc(-c3cn(C(=O)N4CCCCC4c4ccccc4)nn3)cc2)cc1", "note": "(stereo not drawn)", "values": [{"measurement": "CC50", "setting": "with serum", "result": 5.9, "unit": "µM"}, {"measurement": "CC50", "setting": "without serum", "result": "> 100 µM (inactive)"}]}, {"smiles": "COc1ccccc1-c1ccc(-c2cn(C(=O)N3CCCCC3Cc3ccccc3)nn2)cc1", "note": "(stereo not drawn)", "values": [{"measurement": "CC50", "setting": "with serum", "result": 3.1, "unit": "µM"}, {"measurement": "CC50", "setting": "without serum", "result": "> 100 µM (inactive)"}]}, {"smiles": "O=C(N1CCCCC1Cc1ccccc1)n1cc(-c2ccc(-c3ccccc3)cc2)nn1", "note": "(stereo not drawn)", "values": [{"measurement": "CC50", "setting": "with serum", "result": 4.2, "unit": "µM"}, {"measurement": "CC50", "setting": "without serum", "result": "> 100 µM (inactive)"}]}]}
